In ChEMBL document CHEMBL5385904, “Design, synthesis and biological evaluation of seco-DSP/DCK derivatives reversing P-glycoprotein-mediated paclitaxel resistance in A2780/T cells” (Eur J Med Chem, 2023):
The source made the active and inactive calls. No cut-off for these calls is given here.

Tests used:
[1] = system: A2780/Taxol; test: Cytotoxicity against human A2780/Taxol cells assessed survival rate at 10 uM incubated for 48 hrs by MTT assay; type: functional
[2] = system: A2780/Taxol; test: Reversal of multi-drug resistance in human A2780/Taxol cells incubated for 48 hrs by MTT assay; type: functional, cell-based
[3] = system: A2780/Taxol; test: Reversal of multidrug resistance in human A2780/Taxol Cells assessed as reversal fold of paclitaxel IC50 at 10 uM incubated for 48 hrs by MTT assay; type: functional
[4] = molecular target: T1, hERG (KCNH2) (Homo sapiens, UniProt Q12809); test: Inhibition of hERG at 40 uM by patch clamp assay relative to control; type: toxicity
T1 sequence (Q12809 whole entry): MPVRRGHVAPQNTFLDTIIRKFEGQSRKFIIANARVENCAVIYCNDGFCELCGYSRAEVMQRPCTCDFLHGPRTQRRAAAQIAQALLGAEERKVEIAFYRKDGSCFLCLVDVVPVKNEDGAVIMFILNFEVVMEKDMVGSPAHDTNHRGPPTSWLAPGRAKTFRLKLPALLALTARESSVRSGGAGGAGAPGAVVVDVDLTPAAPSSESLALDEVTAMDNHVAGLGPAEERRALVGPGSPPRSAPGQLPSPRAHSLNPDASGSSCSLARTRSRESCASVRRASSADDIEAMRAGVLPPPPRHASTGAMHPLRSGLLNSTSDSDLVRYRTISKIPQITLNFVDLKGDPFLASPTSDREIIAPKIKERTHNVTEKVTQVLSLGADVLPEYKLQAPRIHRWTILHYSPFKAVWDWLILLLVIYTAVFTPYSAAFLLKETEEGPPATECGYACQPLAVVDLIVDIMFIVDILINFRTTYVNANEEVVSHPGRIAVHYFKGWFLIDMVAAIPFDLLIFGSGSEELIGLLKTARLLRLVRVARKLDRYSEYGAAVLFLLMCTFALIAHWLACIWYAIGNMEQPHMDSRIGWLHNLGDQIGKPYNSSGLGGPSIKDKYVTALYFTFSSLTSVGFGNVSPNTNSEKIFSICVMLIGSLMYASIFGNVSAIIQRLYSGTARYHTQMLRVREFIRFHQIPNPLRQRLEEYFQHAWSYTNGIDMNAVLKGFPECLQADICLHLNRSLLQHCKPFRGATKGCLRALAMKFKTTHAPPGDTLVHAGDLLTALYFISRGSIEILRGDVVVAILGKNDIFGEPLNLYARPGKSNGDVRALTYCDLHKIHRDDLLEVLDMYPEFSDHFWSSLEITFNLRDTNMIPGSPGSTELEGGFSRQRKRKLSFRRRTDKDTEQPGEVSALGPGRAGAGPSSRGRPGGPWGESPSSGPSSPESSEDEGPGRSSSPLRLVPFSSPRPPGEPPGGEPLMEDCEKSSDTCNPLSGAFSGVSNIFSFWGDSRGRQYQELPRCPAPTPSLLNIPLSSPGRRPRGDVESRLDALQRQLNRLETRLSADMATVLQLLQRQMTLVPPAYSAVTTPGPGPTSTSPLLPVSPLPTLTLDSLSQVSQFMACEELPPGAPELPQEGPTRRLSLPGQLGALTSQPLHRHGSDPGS

[5] = molecular target: Voltage-gated inwardly rectifying potassium channel KCNH2 (Homo sapiens, UniProt Q12809); test: Inhibition of hERG by patch clamp assay; type: toxicity
Sequence of Voltage-gated inwardly rectifying potassium channel KCNH2 (Q12809 whole entry): as above

[6] = Stability in human microsomal fraction preincubated for 10 mins followed by NADPH addition and measured upto 60 mins by LC-MS/MS analysis; type: ADME, microsomes, Microsome; conditions: time < 70 min, read-out: Stability
[7] = system: A2780/Taxol; test: Reversal of multi-drug resistance in human A2780/Taxol cells at 10 to 20 uM incubated for 48 hrs by MTT assay; type: functional, cell-based; conditions: dose 10-20 µM
[8] = system: A2780; test: Reversal of drug-sensitive human A2780 cells at 2.5 to 20 uM incubated for 48 hrs in presence of paclitaxel by MTT assay; type: functional, cell-based; conditions: dose 2.5-20 µM
[9] = system: A2780; test: Cytotoxicity against human A2780 cells assessed as reduction in cell viability at 10 to 20 uM incubated for 48 hrs by MTT assay; type: functional, cell-based; conditions: dose 10-20 µM
[10] = molecular target: ATP-dependent translocase ABCB1 (Homo sapiens, UniProt P08183); test: Inhibition of P-gp in human A2780/Taxol cells assessed as paclitaxel accumulation in cells by measuring increase in fluorescence intensity at 5 to 20 uM incubated for 8 hrs; type: cell-based; conditions: dose 5-20 µM
Sequence of ATP-dependent translocase ABCB1 (P08183 whole entry): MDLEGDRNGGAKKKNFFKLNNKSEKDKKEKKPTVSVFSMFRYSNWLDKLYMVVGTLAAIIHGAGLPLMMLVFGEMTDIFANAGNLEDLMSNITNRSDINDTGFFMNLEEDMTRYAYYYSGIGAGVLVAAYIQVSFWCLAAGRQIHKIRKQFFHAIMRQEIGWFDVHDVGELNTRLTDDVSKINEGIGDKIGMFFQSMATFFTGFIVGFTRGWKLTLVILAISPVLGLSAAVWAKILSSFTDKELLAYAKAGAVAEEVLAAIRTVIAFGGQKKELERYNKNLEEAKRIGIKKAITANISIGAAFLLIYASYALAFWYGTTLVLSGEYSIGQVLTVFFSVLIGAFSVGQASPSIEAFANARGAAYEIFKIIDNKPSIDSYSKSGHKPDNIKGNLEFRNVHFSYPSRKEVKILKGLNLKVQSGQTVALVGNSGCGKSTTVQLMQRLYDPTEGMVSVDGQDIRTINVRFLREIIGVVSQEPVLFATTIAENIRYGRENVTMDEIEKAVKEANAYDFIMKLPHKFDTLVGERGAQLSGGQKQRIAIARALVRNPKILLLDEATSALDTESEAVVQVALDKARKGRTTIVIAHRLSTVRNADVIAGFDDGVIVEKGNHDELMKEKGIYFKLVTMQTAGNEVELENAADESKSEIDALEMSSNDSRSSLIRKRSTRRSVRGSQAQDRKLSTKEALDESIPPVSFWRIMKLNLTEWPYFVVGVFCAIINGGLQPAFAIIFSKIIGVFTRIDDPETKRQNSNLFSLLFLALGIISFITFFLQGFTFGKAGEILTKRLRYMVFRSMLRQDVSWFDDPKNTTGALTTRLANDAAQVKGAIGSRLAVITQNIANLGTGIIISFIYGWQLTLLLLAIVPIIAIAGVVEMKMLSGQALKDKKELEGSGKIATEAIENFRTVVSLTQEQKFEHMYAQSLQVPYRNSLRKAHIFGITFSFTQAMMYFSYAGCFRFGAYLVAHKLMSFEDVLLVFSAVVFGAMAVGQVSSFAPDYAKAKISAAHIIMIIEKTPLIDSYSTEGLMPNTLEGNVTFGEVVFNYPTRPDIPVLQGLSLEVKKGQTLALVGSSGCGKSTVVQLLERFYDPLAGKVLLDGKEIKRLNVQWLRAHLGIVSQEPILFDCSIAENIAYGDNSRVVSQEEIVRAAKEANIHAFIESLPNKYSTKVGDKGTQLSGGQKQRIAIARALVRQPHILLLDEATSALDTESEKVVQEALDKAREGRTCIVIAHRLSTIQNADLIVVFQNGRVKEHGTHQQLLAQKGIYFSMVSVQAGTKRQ

[11] = molecular target: T1, hERG (KCNH2); test: Inhibition of hERG at 3 uM by patch clamp assay relative to control; type: toxicity

Row | SMILES | Cell survival rate [1] [%] | IC50 [2] [nM] | fold change (FC) [3] | also measured
1 | COc1cc(CCC(=O)OCc2c(OC(C)C)ccc3c(C)c(Cc4ccccc4)c(=O)oc23)cc(OC)c1OC | 90 | 53 | 82 | 
2 | CCc1cc(=O)c2ccc(OC(C)C)c(CNc3cc(OC)c(OC)c(OC)c3)c2o1 | 86 | 143 | 31 | 
3 | Cc1c(Cc2ccccc2)c(=O)oc2c(COC(=O)Cc3ccccc3)c(OC(C)C)ccc12 | 83 | 76 | 58 | 
4 | COc1cc(NC(=O)c2c(OC(C)C)ccc3c(C)cc(=O)oc23)cc(OC)c1OC | 88 | 1590 | 2.8 | 
5 | Cc1c(Cc2ccccc2)c(=O)oc2c(COC(=O)Cc3ccc(F)cc3)c(OC(C)C)ccc12 | 95 | 67 | 66 | 
6 | COc1ccc(/C=C/C(=O)OCc2c(OC(C)C)ccc3c(C)c(Cc4ccc(F)cc4)c(=O)oc23)cc1 | 89 | 491 | 9 | 
7 | CCOc1ccc2c(C)c(Cc3ccccc3)c(=O)oc2c1COC(=O)/C=C/c1ccc(OC)cc1 | 74 | 276 | 16 | 
8 | CCOc1ccc2c(C)cc(=O)oc2c1CNC(=O)/C=C/c1ccc(OC)cc1 | 96 | 29 | 150 | inhibition at 40 µM [4]: 32.5%; IC50 [5]: > 40000 nM; remaining at 1 h [6]: 44.3%
9 | COc1cccc(Cc2c(C)c3ccc(OC(C)C)c(COC(=O)Cc4cc(OC)c(OC)c(OC)c4)c3oc2=O)c1 | 93 | 73 | 60 | 
10 | COc1ccc(/C=C/C(=O)OCc2c(OC(C)C)ccc3c(C)c(Cc4ccccc4)c(=O)oc23)cc1 | 86 | 233 | 19 | 
11 | COc1ccc(Cc2c(C)c3ccc(OC(C)C)c(COC(=O)Cc4cc(OC)c(OC)c(OC)c4)c3oc2=O)cc1 | 94 | 94 | 47 | 
12 | Cc1cc(=O)oc2c(C(=O)Nc3ccccc3)c(OC(C)C)ccc12 | 92 | 2760 | 1.6 | 
13 | COc1cc(CC(=O)OCc2c(OC(C)C)ccc3c(C)c(Cc4ccc(F)cc4)c(=O)oc23)cc(OC)c1OC | 92 | 21 | 206 | 
14 | CCOc1ccc2c(=O)cc(CC)oc2c1CNC(=O)/C=C/c1ccc(OC)cc1 | 91 | 29 | 153 | remaining at 1 h [6]: 11.8%
15 | COc1ccc(/C=C/C(=O)OCc2c(OC(C)C)ccc3c(C)c(Cc4ccc(OC)cc4)c(=O)oc23)cc1 | 83 | 491 | 9 | 
16 | CCOc1ccc2c(C)c(Cc3ccc(F)cc3)c(=O)oc2c1COC(=O)/C=C/c1ccc(OC)cc1 | 92 | 340 | 13 | 
17 | CCc1cc(=O)c2ccc(OC(C)C)c(CNC(=O)/C=C/c3ccc(OC)cc3)c2o1 | 79 | 31 | 142 | remaining at 1 h [6]: 29.4%
18 | COc1cc(CC(=O)OCc2c(OC(C)C)ccc3c(C)c(Cc4cccc(F)c4)c(=O)oc23)cc(OC)c1OC | 94 | 86 | 51 | 
19 | CC(=O)O[C@H]1C(=O)[C@@]2(C)[C@H]([C@H](OC(=O)c3ccccc3)[C@]3(O)C[C@H](OC(=O)[C@H](O)[C@@H](NC(=O)c4ccccc4)c4ccccc4)C(C)=C1C3(C)C)[C@]1(OC(C)=O)CO[C@@H]1C[C@@H]2O [PACLITAXEL] |  | 4420 | 1 | 
20 | CCOc1ccc2c(=O)cc(CC)oc2c1COC(=O)/C=C/c1ccc(OC)cc1 | 52 |  |  | 
21 | Cc1c(Cc2ccccc2)c(=O)oc2c(COC(=O)/C=C/c3ccccc3)c(OC(C)C)ccc12 | 95 | 276 | 16 | 
22 | Cc1c(Cc2ccc(F)cc2)c(=O)oc2c(COC(=O)/C=C/c3ccccc3)c(OC(C)C)ccc12 | 90 | 294 | 15 | 
23 | COc1ccccc1Cc1c(C)c2ccc(OC(C)C)c(COC(=O)Cc3cc(OC)c(OC)c(OC)c3)c2oc1=O | 92 | 69 | 64 | 
24 | COc1cc(CC(=O)NCc2c(OC(C)C)ccc3c(C)cc(=O)oc23)cc(OC)c1OC | 90 | 1580 | 2.8 | 
25 | COc1cc(CC(=O)OCc2c(OC(C)C)ccc3c(C)cc(=O)oc23)cc(OC)c1OC | 94 | 107 | 41 | 

Row | SMILES | Cell survival rate [1] [%] | IC50 [2] [nM] | fold change (FC) [3] | also measured
26 | COc1cc(CC(=O)OCc2c(OC(C)C)ccc3c(C)c(CCc4ccccc4)c(=O)oc23)cc(OC)c1OC | 93 | 88 | 50 | 
27 | COc1cc(C(=O)OCc2c(OC(C)C)ccc3c(C)c(Cc4ccccc4)c(=O)oc23)cc(OC)c1OC | 91 | 85 | 52 | 
28 | COc1cc(C(=O)OCc2c(OC(C)C)ccc3c(C)c(CCc4ccccc4)c(=O)oc23)cc(OC)c1OC | 91 | 31 | 140 | 
29 | COc1ccc(/C=C/C(=O)OCc2c(OC(C)C)ccc3c(C)c(Cc4ccc(C(F)(F)F)cc4)c(=O)oc23)cc1 | 94 | 631 | 7 | 
30 | COc1cc(CC(=O)OCc2c(OC(C)C)ccc3c(C)c(C)c(=O)oc23)cc(OC)c1OC | 94 | 55 | 80 | 
31 | Cc1cc(=O)oc2c(C(=O)Nc3ccc(OC(F)(F)F)cc3)c(OC(C)C)ccc12 | 60 | 315 | 14 | 
32 | Cc1c(Cc2ccccc2)c(=O)oc2c(COC(=O)c3ccccc3)c(OC(C)C)ccc12 | 81 | 62 | 71 | 
33 | CCc1cc(=O)c2ccc(OC(C)C)c(CNC(=O)Cc3cc(OC)c(OC)c(OC)c3)c2o1 | 97 | 20 | 224 | 
34 | COc1ccc(Cc2c(C)c3ccc(OC(C)C)c(COC(=O)/C=C/c4ccccc4)c3oc2=O)cc1 | 94 | 3400 | 1.3 | 
35 | CCOc1ccc2c(C)c(Cc3ccc(OC)cc3)c(=O)oc2c1COC(=O)/C=C/c1ccc(OC)cc1 | 90 | 491 | 9 | 
36 | Cc1cc(=O)oc2c(CNC(=O)/C=C/c3ccccc3)c(OC(C)C)ccc12 | 87 | 294 | 15 | 
37 | COc1cc(CC(=O)OCc2c(OC(C)C)ccc3c(C)c(C(C)C)c(=O)oc23)cc(OC)c1OC | 98 | 36 | 122 | 
38 | CCc1c(C)c2ccc(OC(C)C)c(COC(=O)Cc3cc(OC)c(OC)c(OC)c3)c2oc1=O | 93 | 69 | 64 | 
39 | CCc1cc(=O)c2ccc(OC(C)C)c(CNC(=O)/C=C/c3ccccc3)c2o1 | 74 | 192 | 23 | 
40 | COc1cc2c(cc1OC)CN(CCc1ccc(NC(=O)c3cc(OC)c(OC)cc3NC(=O)c3cnc4ccccc4c3)cc1)CC2 [TARIQUIDAR] |  |  |  | Activity [7]: Active; Activity [8]: Active; Activity [9]: Active; inhibition (INH) [10]: Active
41 | COc1cc(CC(=O)OCc2c(OC(C)C)ccc3c(C)c(Cc4ccc(C(F)(F)F)cc4)c(=O)oc23)cc(OC)c1OC | 81 | 94 | 47 | 
42 | COc1cc(N)c(Cl)cc1C(=O)NC1CCN(CCCOc2ccc(F)cc2)CC1OC (centres undefined) [CISAPRIDE] |  |  |  | inhibition at 3 µM [11]: 98%
43 | COc1ccc(CCN(C)CCCC(C#N)(c2ccc(OC)c(OC)c2)C(C)C)cc1OC (centres undefined) [VERAPAMIL] | 81 |  |  | Activity [7]: Active; Activity [8]: Active; Activity [9]: Active
44 | Cc1c(Cc2ccc(C(F)(F)F)cc2)c(=O)oc2c(COC(=O)/C=C/c3ccccc3)c(OC(C)C)ccc12 | 99 | 401 | 11 | 
45 | Cc1c(Cc2ccccc2)c(=O)oc2c(COC(=O)c3ccc(F)cc3)c(OC(C)C)ccc12 | 82 | 86 | 51 | 
46 | COc1cc(CC(=O)OCc2c(OC(C)C)ccc3c(C)c(Cc4ccccc4F)c(=O)oc23)cc(OC)c1OC | 98 | 73 | 60 | 
47 | Cc1c(Cc2ccc(C#N)cc2)c(=O)oc2c(COC(=O)/C=C/c3ccccc3)c(OC(C)C)ccc12 | 91 | 210 | 21 | 
48 | COc1cc(CC(=O)OCc2c(OC(C)C)ccc3c(C)c(Cc4ccc(C#N)cc4)c(=O)oc23)cc(OC)c1OC | 81 | 88 | 50 | 
49 | COc1cc(CC(=O)OCc2c(OC(C)C)ccc3c(C)c(-c4ccccc4)c(=O)oc23)cc(OC)c1OC | 97 | 43 | 101 | 
